Experimental data from patent US12090146B2, “Substituted-pyridinyl compounds and uses thereof” (Bionomics Limited, priority 2018, dated 2024).

Target: T1, hKv3.1 (Homo sapiens, UniProt P48547)
T1 construct: expressed in transfected cells
T1 sequence (P48547 1-511): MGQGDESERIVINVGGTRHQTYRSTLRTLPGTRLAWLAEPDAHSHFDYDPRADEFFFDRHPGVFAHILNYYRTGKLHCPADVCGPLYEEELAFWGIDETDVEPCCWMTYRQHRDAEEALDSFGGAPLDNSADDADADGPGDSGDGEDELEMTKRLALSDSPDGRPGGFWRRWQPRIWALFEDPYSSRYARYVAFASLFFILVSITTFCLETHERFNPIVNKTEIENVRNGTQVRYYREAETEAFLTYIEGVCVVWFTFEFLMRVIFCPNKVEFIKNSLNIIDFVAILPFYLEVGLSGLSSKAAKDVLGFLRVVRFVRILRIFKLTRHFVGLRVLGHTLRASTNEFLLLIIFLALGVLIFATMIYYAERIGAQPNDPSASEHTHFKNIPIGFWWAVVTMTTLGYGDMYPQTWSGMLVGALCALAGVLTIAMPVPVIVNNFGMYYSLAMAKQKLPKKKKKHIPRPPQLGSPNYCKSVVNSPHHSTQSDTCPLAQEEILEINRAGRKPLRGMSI
Assay: Automated patch clamp (Patchliner) whole-cell electrophysiology, Kv3.1
Assay type: cell-based
Settings: 10 μM compound, CHO-K1 cells stably expressing hKv3.1; for Kv3.1 Activity at 10 μM Potentiation (%): % potentiation of peak current at −10 mV voltage step vs vehicle; for Kv3.1 Activity at 10 μM Voltage Shift (mV): voltage shift of the IV curve at V1/2
Description: hKv3.1, hKv3.2, hKv3.3, and hKv3.4 were stably expressed in CHO-K1 (Chinese hamster ovary) cells and kept under constant antibiotic selection. For in vitro assays, cells were maintained in appropriate growth medium at 37° C. and 5% CO2 in a humidified incubator.
hKv3.X expressing cells were plated in T-25 flasks for 3-4 days at 37° C. (no selection antibiotic) prior to use and grown to 80% confluence. Cells were washed twice with PBS (calcium and magnesium free) and detached with a 5-minute treatment at 37° C. with 2-3 mls of Accutase®. Cells were collected, and flask was washed in CHO-SFM II media (Life Technologies Gibco), centrifuged for 2 minutes at ˜110×g and resuspended to obtain a single cell suspension of ˜2-3×10^6 cells/ml.
The intracellular solution contained the following (in mM): KCl 50, NaCl 10, KF 60, EGTA 20, HEPES 10, adjusted to pH 7.2 with KOH and an osmolarity of 285 mOsmol. Seal enhancer was purchased from Nanion (80 mM NaCl, 3 mM KCl, 10 mM MgCl2, 35 mM CaCl2), 10 mM HEPES, pH7.4, 298 mOsmol. The external solution contained (in mM): NaCl 140, KCl 4, CaCl2) 2, MgCl2 1, HEPES 10, Glucose 5, adjusted to pH7.4 and an osmolarity of 298 mOsmol.
All compounds were initially tested at 10 uM at a final DMSO concentration of 0.33%. Compounds were dissolved in dimethylsulfoxide (DMSO) at a stock concentration of 30 mM. The compound was further diluted 1:10 to give a stock concentration of 3 mM in DMSO. The final assay solution was diluted 1:300 in External solution to give a final concentration of 10 uM. For the DMSO Control Buffer 30 uL of DMSO was added to 10 mL buffer.
All electrophysiological recordings were performed at ambient temperature (21-23° C.) using automated patch clamp (Patchliner, Nanion Technologies GmbH) in the whole-cell configuration.
Cell membrane potentials were held at −80 mV, and currents were evoked by voltage steps (1000 ms duration) from −60 to +60 mV in 10 mV increments. This was performed first with vehicle (0.33% DMSO) and then with 10 uM compound, after a 3-minute incubation period. Data was taken from 4 cells per assay.
The recordings were analysed and selected using peak current amplitude (>100 pA at the −10 mV voltage step) in the absence of compound to eliminate unsuitable cells from analysis. Peak current amplitude was measured and recorded for each voltage step and data was normalised to the maximum current at +60 mV. The normalised Kv3.x currents following addition of the compound were then compared with the currents recorded prior to compound addition (vehicle control). Positive modulation was determined as % potentiation at the voltage step of −10 mV=[current (cmpd)/current (veh)]*100−100. % potentiation ≥50% was considered acceptable. In addition, voltage shift of the IV curve at V1/2 was measured. V1/2 of ≥−5 mV was also considered acceptable. IV curves were plotted in GraphPad Prism (software version 6.0) and fitted with a Boltzmann equation, where V1/2 is the voltage at half-maximal activation.

| SMILES | Kv3.1 Activity at 10 μM Potentiation (%) | Kv3.1 Activity at 10 μM Voltage Shift (mV) |
| --- | --- | --- |
| CC[C@@]1(C)NC(=O)N(c2ccnc(Oc3ccc(Cl)c(OC)c3)c2)C1=O [Example 15, (5R)-5-ethyl-3-[2-(3-methoxy-4-chloro-phenoxy)-4-pyridyl]-5-methyl-imidazolidine-2,4-dione] | 3% | −0.9 mV |
| Cc1ccc(Oc2cc(N3C(=O)NC4(CCCCC4)C3=O)ccn2)cc1OC(F)(F)F [Example 29, 3-[2-[4-methyl-3-(trifluoromethoxy)phenoxy]-4-pyridyl]-1,3-diazaspiro[4.5]decane-2,4-dione] | 12% | −0.63 mV |
| CC[C@H]1NC(=O)N(c2cccc(Oc3cccc(OC)c3)n2)C1=O [Example 55, (5R)-5-ethyl-3-[6-(3-methoxy-phenoxy)-2-pyridyl]imidazolidine-2,4-dione] | 11% | −1.41 mV |
| CC[C@H]1NC(=O)N(c2cccc(Oc3cc(C)cc(OC)c3)n2)C1=O [Example 54, (5R)-5-ethyl-3-[6-(5-methoxy-3-methyl-phenoxy)-2-pyridyl]imidazolidine-2,4-dione] | 11% | −1.69 mV |
| CC[C@H]1NC(=O)N(c2cccc(Oc3cccc(C)c3OC)n2)C1=O [Example 56, (5R)-5-ethyl-3-[6-(2-methoxy-3-methyl-phenoxy)-2-pyridyl]imidazolidine-2,4-dione] | 19% | −2.7 mV |
| CC[C@H]1NC(=O)N(c2cccc(Oc3cc(OC)ccc3C)n2)C1=O [Example 52, (5R)-5-ethyl-3-[6-(5-methoxy-2-methyl-phenoxy)-2-pyridyl]imidazolidine-2,4-dione] | 14% | −3.5 mV |
| CC[C@@]1(C)NC(=O)N(c2cccc(Oc3ccc(F)c(C)c3)n2)C1=O [Example 60, (5R)-5-ethyl-3-[6-(4-fluoro-3-methyl-phenoxy)-2-pyridyl]-5-methyl-imidazolidine-2,4-dione] | 51% | −3.45 mV |
| CC[C@@]1(C)NC(=O)N(c2ccnc(Oc3ccc(C)c(F)c3)c2)C1=O [Example 12, (5R)-5-ethyl-3-[2-(3-fluoro-4-methyl-phenoxy)-4-pyridyl]-5-methyl-imidazolidine-2,4-dione] | 6% | −3.31 mV |
| CC[C@@]1(C)NC(=O)N(c2ccnc(Oc3ccc(C)c(C)c3)c2)C1=O [Example 17, (5R)-3-[2-(3,4-dimethylphenoxy)-4-pyridyl]-5-ethyl-5-methyl-imidazolidine-2,4-dione] | 28% | −3.12 mV |
| CC[C@H]1NC(=O)N(c2ccnc(Oc3ccc(C)c(OC)c3)c2)C1=O [Example 23, (5R)-5-ethyl-3-[2-(3-methoxy-4-methyl-phenoxy)-4-pyridyl]imidazolidine-2,4-dione] | 30% | 0.77 mV |
| CC[C@@]1(C)NC(=O)N(c2cncc(Oc3ccc(C)c(OC)c3)c2)C1=O [Example 40, (5R)-5-ethyl-3-[5-(3-methoxy-4-methyl-phenoxy)-3-pyridyl]-5-methyl-imidazolidine-2,4-dione] | 78% | −4.77 mV |
| CC[C@@]1(C)NC(=O)N(c2cccc(Oc3ccc4c(c3)CCC4)n2)C1=O [Example 61, (5R)-5-ethyl-3-(6-indan-5-yloxy-2-pyridyl)-5-methyl-imidazolidine-2,4-dione] | 46% | −3.55 mV |
| CC[C@@]1(C)NC(=O)N(c2cccc(Oc3ccc4c(c3)OCCC4)n2)C1=O [Example 64, (5R)-3-(6-chroman-7-yloxy-2-pyridyl)-5-ethyl-5-methyl-imidazolidine-2,4-dione] | 15% | −2.57 mV |
| CC[C@H]1NC(=O)N(c2cccc(Oc3ccc(OC)c(C)c3)n2)C1=O [Example 51, (5R)-5-ethyl-3-[6-(4-methoxy-3-methyl-phenoxy)-2-pyridyl]imidazolidine-2,4-dione] | 7% | −1.99 mV |
| CC[C@H]1NC(=O)N(c2cc(Oc3ccc4ccccc4c3)ccn2)C1=O [Example 42, (5R)-5-ethyl-3-[4-(2-naphthyloxy)-2-pyridyl]imidazolidine-2,4-dione] | 25% | −3.07 mV |
| CC[C@@]1(C)NC(=O)N(c2cccc(Oc3ccc(F)c(OC)c3)n2)C1=O [Example 59, (5R)-5-ethyl-3-[6-(4-fluoro-3-methoxy-phenoxy)-2-pyridyl]-5-methyl-imidazolidine-2,4-dione] | 10% | −1.95 mV |
| CC[C@@]1(C)NC(=O)N(c2cccc(Oc3cccc4c3CCC4)n2)C1=O [Example 69, (5R)-5-ethyl-3-(6-indan-4-yloxy-2-pyridyl)-5-methyl-imidazolidine-2,4-dione] | 73% | −3 mV |
| CC(C)c1cc(Oc2cccc(N3C(=O)NC(C)(C)C3=O)n2)ccc1C#N [Example 77, 4-[[6-(4,4-dimethyl-2,5-dioxo-imidazolidin-1-yl)-2-pyridyl]oxy]-2-isopropyl-benzonitrile] | 12% | −0.95 mV |
| CC(C)c1cc(Oc2ccnc(N3C(=O)NC(C)(C)C3=O)c2)ccc1C#N [Example 47, 4-[[2-(4,4-dimethyl-2,5-dioxo-imidazolidin-1-yl)-4-pyridyl]oxy]-2-isopropyl-benzonitrile] | 29% | −1.49 mV |
| CC[C@H]1NC(=O)N(c2cncc(Oc3ccc(C)c(OC)c3)c2)C1=O [Example 38, (5R)-5-ethyl-3-[5-(3-methoxy-4-methyl-phenoxy)-3-pyridyl]imidazolidine-2,4-dione] | 48% | −2.8 mV |
| CC[C@]1(C)NC(=O)N(c2cccc(Oc3ccc(C)c(OC)c3)n2)C1=O [Example 72, (5S)-5-ethyl-3-[6-(3-methoxy-4-methyl-phenoxy)-2-pyridyl]-5-methyl-imidazolidine-2,4-dione] | 33% | −4.25 mV |
| CC[C@@]1(C)NC(=O)N(c2ccnc(Oc3ccc4c(c3)OCCC4)c2)C1=O [Example 19, (5R)-3-(2-chroman-7-yloxy-4-pyridyl)-5-ethyl-5-methyl-imidazolidine-2,4-dione] | 35% | −0.4 mV |
| COc1cc(Oc2cccc(N3C(=O)NC(C)(C)C3=O)n2)ccc1C [Example 73, 3-[6-(3-methoxy-4-methyl-phenoxy)-2-pyridyl]-5,5-dimethyl-imidazolidine-2,4-dione] | 26% | −1.61 mV |
